{"source": "ChEMBL document CHEMBL4828717", "about": "“Synthetic cajaninstilbene acid derivatives eradicate methicillin-resistant Staphylococcus aureus persisters and biofilms” (Eur J Med Chem, 2021)", "key": {"[1]": {"system": "Staphylococcus aureus", "assay": "Antibacterial activity against methicillin resistant Staphylococcus aureus ATCC49800 assessed as reduction in microbial growth after 16 to 18 hrs by microbroth dilution method", "assay_type": "functional", "conditions": "time 16-18 hrs"}, "[2]": {"system": "Staphylococcus aureus", "assay": "Synergistic antimicrobial activity against Staphylococcus aureus ATCC 43300 assessed as FICI at 1 times MIC after 24 hrs in presence of 32 ug/ml piperacillin by checkerboard assay", "assay_type": "functional"}, "[3]": {"system": "Staphylococcus aureus", "assay": "Antibacterial activity against methicillin resistant Staphylococcus aureus ATCC513045 assessed as reduction in microbial growth after 16 to 18 hrs by microbroth dilution method", "assay_type": "functional", "conditions": "time 16-18 hrs"}, "[4]": {"system": "Staphylococcus aureus", "assay": "Synergistic antimicrobial activity against Staphylococcus aureus ATCC 43300 assessed as FICI at 0.5 times MIC after 24 hrs in presence of 64 ug/ml piperacillin by checkerboard assay", "assay_type": "functional"}, "[5]": {"system": "Cell membrane", "assay": "Induction of cell membrane damage in methicillin resistant Staphylococcus aureus ATCC 43300 assessed as increase in ATP leakage […] at 4 times MIC measured every 30 mins for 6 hrs by Bactiter-glo assay"}, "[6]": {"system": "Cell membrane", "assay": "Induction of cell membrane damage in Staphylococcus aureus ATCC 43300 at 2 times MIC after 90 mins by confocal laser scanning microscopy analysis"}, "[7]": {"system": "Staphylococcus aureus", "assay": "Synergistic antimicrobial activity against Staphylococcus aureus ATCC 43300 assessed as FICI at 0.5 times MIC after 24 hrs in presence of 128 ug/ml kanamycin by checkerboard assay", "assay_type": "functional"}, "[8]": {"system": "Staphylococcus aureus", "assay": "Antibacterial activity against methicillin resistant Staphylococcus aureus ATCC 43300 persisters assessed as reduction in number of bacteria at 4 times MIC incubated for 4 hrs by colony counting method", "assay_type": "functional, organism-based"}, "[9]": {"assay": "Toxicity in BALB/c mouse infected with methicillin-resistant Staphylococcus aureus ATCC 43300 assessed as damage in liver at 50 to 200 mg/kg, sc administered every 24 hrs for 4 days by H&E staining based light microscopic analysis", "assay_type": "organism-based", "conditions": "in vivo, dose 50-200 mg/kg"}, "[10]": {"assay": "Toxicity in BALB/c mouse infected with methicillin-resistant Staphylococcus aureus ATCC 43300 assessed as damage in spleen at 50 to 200 mg/kg, sc administered every 24 hrs for 4 days by H&E staining based light microscopic analysis", "assay_type": "organism-based", "conditions": "in vivo, dose 50-200 mg/kg"}, "[11]": {"system": "Enterococcus faecalis", "assay": "Antibacterial activity against Enterococcus faecalis ATCC29212 assessed as reduction in microbial growth after 16 to 18 hrs by microbroth dilution method", "assay_type": "functional", "conditions": "ATCC 29212, time 16-18 hrs"}, "[12]": {"system": "Staphylococcus aureus", "assay": "Inhibition of biofilm formation in methicillin-resistant Staphylococcus aureus ATCC 43300 at 4 times MIC incubated for 24 hrs by crystal violet staining based microplate reader assay", "assay_type": "functional"}, "[13]": {"assay": "Toxicity in BALB/c mouse infected with methicillin-resistant Staphylococcus aureus ATCC 43300 assessed as damage in kidney at 50 to 200 mg/kg, sc administered every 24 hrs for 4 days by H&E staining based light microscopic analysis", "assay_type": "organism-based", "conditions": "in vivo, dose 50-200 mg/kg"}, "[14]": {"system": "Cell membrane", "assay": "Induction of cell membrane permeabilization in methicillin resistant Staphylococcus aureus ATCC 43300 assessed as fluorescence intensity at 2 times MIC measured after 30 mins by propidium iodide staining based fluorescence assay"}, "[15]": {"system": "Staphylococcus aureus", "assay": "Antibacterial activity against methicillin resistant Staphylococcus aureus ATCC 43300 persisters assessed as reduction in colony formation at 8 ug/ml incubated for 2 hrs by colony counting method", "assay_type": "functional, organism-based", "conditions": "dose 8.0 µg/ml"}}, "note": "Calls of active or inactive are those of the source. The calls are words filed in the database; no cut-off is given here."}
{"smiles": "CC(C)=CCc1c(OCCF)cc(/C=C/c2ccc(F)cc2)c(C(=O)O)c1O", "values": [{"measurement": "MIC", "setting": "[1]", "result": 4, "unit": "µg/mL"}, {"measurement": "fractional inhibitory concentration index (FICI)", "setting": "[2]", "result": 0.315}, {"measurement": "MIC", "setting": "[3]", "result": 4, "unit": "µg/mL"}, {"measurement": "fractional inhibitory concentration index (FICI)", "setting": "[4]", "result": 0.25}, {"measurement": "Activity", "setting": "[5]", "result": "Active"}, {"measurement": "Activity", "setting": "[6]", "result": "Active"}, {"measurement": "fractional inhibitory concentration index (FICI)", "setting": "[7]", "result": 1.125}, {"measurement": "Activity", "setting": "[8]", "result": "Active"}, {"measurement": "Activity", "setting": "[9]", "result": "Non-Toxic"}, {"measurement": "Activity", "setting": "[10]", "result": "Non-Toxic"}, {"measurement": "MIC", "setting": "[11]", "result": "> 32", "unit": "µg/mL"}, {"measurement": "inhibition (INH)", "setting": "[12]", "result": 90, "unit": "%"}, {"measurement": "Activity", "setting": "[13]", "result": "Non-Toxic"}, {"measurement": "Activity", "setting": "[14]", "result": "Active"}, {"measurement": "Activity", "setting": "[15]", "result": "Active"}]}
